Series [1] has as its system Male NMRI mice. Briefly: Amphetamine sensitisation: inhibition of the sensitised behavioural response to amphetamine. The class given is in vivo, mouse. Particulars: amphetamine-pretreated mice, s.c. 30 min before D-amphetamine challenge 1.25 mg/kg s.c., 30 min test, S.D. in brackets. As for the experimental part:
Subjects. […] The animals were housed 6 mice pr cage in a 12-hr light/dark cycle under controlled conditions for regular in-door temperature (21±2° C.) and humidity (55±5%) with food and tap water available ad libitum.
Experimental procedure. […] 5×8 infrared light sources and photocells interspaced by 4 cm monitor the locomotor activity.
Administration of compounds.
Data analyses. […] A therapeutic index value can subsequently be calculated by dividing the first ED50 by the second.

Series [2] relates to Male NMRI mice. As to the kind of experiment: Forced swim test. The class given is in vivo, mouse. To be noted: 30 min before test, last 3 min of 6 min swim, vehicle = 100. As for the experimental part:
Subjects. Male NMRI mice (Charles River) weighing 23-25 g were used. The mice were kept 8 mice pr cage in a 12-hr light/dark cycle under controlled conditions for regular in-door temperature (21±2° C.) and humidity (55±5%) with food and tap water available ad libitum. 8 mice were used pr experimental group.
Experimental procedure. The mice were placed in 2000 ml beaker containing 1200 ml of tempered water (25° C.) and left to swim for 6 min. The performance of the mice was video recorded, digitalized and analysed by means of a digital analysis system (Bioobserve). The time spent immobile for the last 3 min. of the test session was quantified for each mouse.
Treatment. 30 min. before the test, mice were treated s.c. with N-(2,6-dimethyl-4-morpholin-4-yl-phenyl)-3,3-dimethyl-butyramide or vehicle (10-%-2-OH-propyl-cyclodextrin, 10 ml/kg). In addition as positive control, imipramine-HCl (40 mg/kg) and a saline control (10 ml/kg) was included.
Analyses. The time spent immobile was statistically compared across the experimental groups against the relevant control group by means of one-way analysis of variance. A post-hoc test (Student-Newman-Keuls) was employed when appropriate. P-levels <0.05 were considered significant.

Series [3] has as its system Male Wistar rats. As to the kind of experiment: Amphetamine challenge: antagonism of d-amphetamine induced hyperactivity. The class given is in vivo. Particulars: rat; s.c. 30 min before d-amphetamine sulphate 0.5 mg/kg; motility over 2 hours; std. dev. in brackets. As for the experimental part: Subjects. Male Wistar rats (Taconic, Denmark) weighing 170-240 g are used. The animals were housed under a 12-hr light/dark cycle under controlled conditions for regular in-door temperature (21±2° C.) and humidity (55±5%) with food and tap water available ad libitum. Eight rats were used at each dose level and in the parallel control group receiving the vehicle to the test compound plus d-amphetamine and the group receiving vehicle injections only.
Experimental procedure. The experiment was made in normal light conditions in an undisturbed room. The test substance was injected 30 min before s.c. before the injection of d-amphetamine sulphate (0.5 mg/kg). Immediately after injection of d-amphetamine, the rats were placed individually in the test cages that were placed in a U-frame, equipped with 4 infrared light sources and photocells. The light beams crossed the cage 4 cm above the cage floor. Recording of a motility count required interruption of adjacent light beams, thus avoiding counts induced by stationary movements of the rat. Motility (counts) was recorded for a period of 2 hours. The mean motility induced by vehicle (saline) treatment in the absence of d-amphetamine was used as baseline. The 100 percent effect of d-amphetamine was accordingly calculated to be total motility counts minus baseline. The response in groups receiving test compound was thus determined by the total motility counts minus baseline, expressed in percent of the similar result recorded in the parallel amphetamine control group. The percent responses were converted to percent inhibition from which ED50 values were calculated by means of log-probit analyses. In a parallel set of data, the potential sedative properties (motility inhibition) of the test compounds were evaluated using essentially the same procedure with the exception of not administering d-amphetamine-sulphate at the initiation of locomotor assessment.

Series [4] can be described thus: Solid form stability at 60° C. and 95% relative humidity. Particulars: relative humidity of 95%. It is filed as physicochemical.
Series [5] is described as follows: Intrinsic dissolution rate (37C). The class given is physicochemical.
The subject of series [6] is Male NMRI mice. Briefly: Inhibition of baseline motility in vehicle-pretreated, vehicle-challenged mice. It is filed as in vivo, mouse. Particulars: 30 min test. As for the experimental part: Subjects. Male NMRI mice (Charles River) weighing approx. 35 g were used. The animals were housed 6 mice pr cage in a 12-hr light/dark cycle under controlled conditions for regular in-door temperature (21±2° C.) and humidity (55±5%) with food and tap water available ad libitum. 12 mice were used pr experimental group.
Experimental procedure. All mice were pre-treated once daily for five days with either d-amphetamine sulphate (2.5 mg/kg s.c.) or saline (10 ml/kg). For the 17 days between the last day of pre-treatment and the test day, the animals were kept in their home cage receiving the standard care as described above. […] The recording of a motility counted requires interruption of adjacent light beams, thereby avoiding counts induced by stationary movements of the mice. […]
Data analyses. […] That is, the response in amphetamine-sensitized groups receiving test compound was thus determined as the sensitised response minus the baseline motility, expressed in percent of the similar result recorded in the sensitized amphetamine response group. […] Similarly, an ED50 for inhibiting baseline motility was calculated by expressed the motility response in vehicle-pretreated, vehicle-challenged, drug-treated animals relative to the baseline motility response. A therapeutic index value can subsequently be calculated by dividing the first ED50 by the second.

Series [7] deals with Male Wistar rats. As to the kind of experiment: Motility inhibition (potential sedative properties, without d-amphetamine). The class given is in vivo. Particulars: rat, std. dev. in brackets. The text has this:
Subjects. Male Wistar rats (Taconic, Denmark) weighing 170-240 g are used.
Experimental procedure. […] Recording of a motility count required interruption of adjacent light beams, thus avoiding counts induced by stationary movements of the rat.

Five compounds from US20120165325A1, “Stable forms of N-(2,6-Dimethyl-4-morpholin-4-yl-phenyl)-3,3-dimethyl-butyramide” (H. Lundbeck A/S, priority 2009, published 2012) can be followed below.

What is called ED50 is the dose that gives a 50% effect, or the effect in half of the subjects.

As to `Cc1cc2c(s1)Nc1ccccc1N=C2N1CCN(C)CC1` [Olanzapine, reference compound], the median effective dose (ED50) was 0.11 mg/kg with Male NMRI mice [1] (Mus musculus) and 0.21 mg/kg in the series with Male Wistar rats [3]. Moreover, the entries for the “Immobility in % (±S.D.)” value with Male NMRI mice [2] (dose 0.31 mg/kg) and in the series with Male NMRI mice [2] (dose 1.3 mg/kg) were 96% and 95%, respectively.
Consider `Cc1cc(N2CCOCC2)cc(C)c1NC(=O)CC(C)(C)C` [α form, N-(2,6-Dimethyl-4-morpholin-4-yl-phenyl)-3,3-dimethyl-butyramide, α form], for which the “Stability: solid form stable for” value in series [4] (listed as α) is “Solid form stable for >90 days at 60 °C”. Further, the “Intrinsic dissolution rate (37C)” value in series [5] (listed as α) was determined as 0.021 mg//cm^2/min.
Turning to `Cc1cc(N2CCOCC2)cc(C)c1NC(=O)CC(C)(C)C` [β form, N-(2,6-Dimethyl-4-morpholin-4-yl-phenyl)-3,3-dimethyl-butyramide, β form], the “Stability: solid form stable for” value in series [4] (listed as β) was “Solid form stable for >90 days at 60 °C”. Further, the “Intrinsic dissolution rate (37C)” value in series [5] (listed as β) is listed as 0.026 mg//cm^2/min.
On to `Cc1cc(N2CCOCC2)cc(C)c1NC(=O)CC(C)(C)C` [γ form, N-[2,6-Dimethyl-4-morpholin-4-yl-phenyl]-3,3-dimethyl-butyramide, γ form], for which, in series [4] (listed as γ), the “Stability: solid form stable for” value was “Solid form stable for >14 days at 60 °C”. In addition, the “Intrinsic dissolution rate (37C)” value in series [5] (listed as γ) came to 0.036 mg//cm^2/min.
With Lithium-chloride, the “Inhibition of baseline motility. ED50 (±S.D.)” value with Male NMRI mice [6] was >>40 mg/kg. In addition, the “Inhibition of amphetamine sensitised response. ED50 (±S.D.)” value with Male NMRI mice [1] was 34 (7.2) mg/kg. Further, in the series with Male Wistar rats [3], the “Amphetamine antagonism ED50 ± std. dev.” value is given as 12 (1.7) mg/kg. For the same compound, the “Motility inhibition ED50 ± std. dev.” value with Male Wistar rats [7] was more than 40 mg/kg.
